Measurements as given in the OligoGym collection.
Where “and” joins values, the source holds several entries; their conditions need not be identical. Equal entries are not always repeated. HELM strings list units from the 5' end as sugar, base in round brackets, then linkage (d deoxyribose, r ribose, m 2'-O-methyl, p phosphodiester). Strings are as the collection lists them, not checked against the first reports. ss, as = sense and antisense strand; [lna] = locked nucleic acid (LNA); [una] = unlocked nucleic acid; [hna] = hexitol nucleic acid; [fl2r] = 2'-fluoro

Conditions: siRNA
Also: test system not given here.

RNA1{r(U)p.r(G)p.r(A)p.r(G)p.r(A)p.r(G)p.r(A)p.r(A)p.r(A)p.r(G)p.r(C)p.r(A)p.r(C)p.r(A)p.r(G)p.r(A)p.r(A)p.r(A)p.r(A)p.r(T)p.r(T)}|RNA2{[lna](T)p.r(U)p.r(U)p.r(U)p.r(C)p.r(U)p.r(G)p.r(U)p.r(G)p.r(C)p.r(U)p.r(U)p.r(U)p.r(C)p.r(U)p.r(C)p.r(U)p.r(C)p.r(A)p.[lna](T)p.[lna](T)}$$$RNA1{StrandType:ss}|RNA2{StrandType:as}$
target mRNA knockdown: 45%

RNA1{r(A)p.r(A)p.r(A)p.r(C)p.[fl2r](C)p.[fl2r](A)p.r(G)p.r(G)p.r(A)p.r(A)p.r(G)p.r(G)p.r(G)p.r(G)p.r(A)p.r(A)p.r(A)p.r(U)p.r(C)p.r(T)p.r(T)}|RNA2{r(G)p.r(A)p.r(U)p.r(U)p.r(U)p.r(C)p.r(C)p.r(C)p.r(C)p.r(U)p.r(U)p.r(C)p.r(C)p.r(U)p.r(G)p.r(G)p.r(U)p.r(U)p.r(U)p.r(T)p.r(T)}$$$RNA1{StrandType:ss}|RNA2{StrandType:as}$
target mRNA knockdown: 64%

RNA1{r(G)p.r(C)p.[fl2r](U)p.r(G)p.[fl2r](U)p.r(A)p.r(A)p.r(C)p.r(C)p.r(U)p.r(C)p.r(G)p.r(G)p.r(A)p.r(G)p.r(A)p.r(G)p.r(U)p.r(U)p.r(T)p.r(T)}|RNA2{r(A)p.r(A)p.r(C)p.r(U)p.r(C)p.r(U)p.r(C)p.r(C)p.r(G)p.r(A)p.r(G)p.r(G)p.r(U)p.[fl2r](U)p.r(A)p.[fl2r](C)p.r(A)p.r(G)p.r(C)p.r(T)p.r(T)}$$$RNA1{StrandType:ss}|RNA2{StrandType:as}$
target mRNA knockdown: 62%

RNA1{[fl2r](C)p.r(G)p.[fl2r](A)p.r(C)p.[fl2r](G)p.r(A)p.[fl2r](U)p.r(U)p.[fl2r](C)p.r(U)p.[fl2r](U)p.r(C)p.[fl2r](U)p.r(A)p.[fl2r](C)p.r(U)p.[fl2r](C)p.r(A)p.[fl2r](A)p.r(T)p.r(T)}|RNA2{r(U)p.r(U)p.r(G)p.r(A)p.r(G)p.r(U)p.r(A)p.r(G)p.r(A)p.r(A)p.r(G)p.r(A)p.r(A)p.r(U)p.r(C)p.r(G)p.r(U)p.r(C)p.r(G)p.r(T)p.r(T)}$$$RNA1{StrandType:ss}|RNA2{StrandType:as}$
target mRNA knockdown: 56%

RNA1{[fl2r](C)p.r(U)p.[fl2r](C)p.r(U)p.[fl2r](C)p.r(C)p.[fl2r](U)p.r(A)p.[fl2r](C)p.r(C)p.[fl2r](U)p.r(U)p.[fl2r](C)p.r(U)p.[fl2r](C)p.r(C)p.[fl2r](U)p.r(C)p.[fl2r](U)p.r(T)p.r(T)}|RNA2{r(A)p.r(G)p.r(A)p.r(G)p.r(G)p.r(A)p.r(G)p.r(A)p.r(A)p.r(G)p.r(G)p.r(U)p.r(A)p.r(G)p.r(G)p.r(A)p.r(G)p.r(A)p.r(G)p.r(T)p.r(T)}$$$RNA1{StrandType:ss}|RNA2{StrandType:as}$
target mRNA knockdown: 69%

RNA1{r(G)p.r(U)p.r(A)p.r(U)p.r(G)p.r(A)p.r(C)p.r(C)p.r(G)p.r(A)p.r(C)p.r(U)p.r(A)p.r(C)p.r(G)p.r(C)p.r(G)p.r(U)p.r(A)p.r(T)p.r(T)}|RNA2{r(U)p.r(U)p.r(C)p.r(A)p.[una](G)p.r(U)p.r(G)p.r(U)p.r(G)p.r(A)p.r(U)p.r(G)p.r(A)p.r(C)p.r(A)p.r(C)p.r(U)p.r(U)p.r(G)p.r(T)p.r(T)}$$$RNA1{StrandType:ss}|RNA2{StrandType:as}$
target mRNA knockdown: 92%

RNA1{r(G)p.r(A)p.r(C)p.r(G)p.r(U)p.r(A)p.r(A)p.r(A)p.r(C)p.r(G)p.r(G)p.r(C)p.r(C)p.r(A)p.r(C)p.r(A)p.r(A)p.r(G)p.[hna](U)p.[hna](U)p.r(C)}|RNA2{r(A)p.r(C)p.r(U)p.r(U)p.r(G)p.r(U)p.r(G)p.r(G)p.r(C)p.r(C)p.r(G)p.r(U)p.r(U)p.r(U)p.r(A)p.r(C)p.r(G)p.r(U)p.r(C)p.r(G)p.r(C)}$$$RNA1{StrandType:ss}|RNA2{StrandType:as}$
target mRNA knockdown: 88.7%

RNA1{r(C)p.r(G)p.r(U)p.r(A)p.r(C)p.r(G)p.r(C)p.r(G)p.r(G)p.r(A)p.r(A)p.r(U)p.r(A)p.r(C)p.r(U)p.r(U)p.r(C)p.r(G)p.r(A)p.r(T)p.r(T)}|RNA2{m(U)p.m(C)p.m(G)p.m(A)p.m(A)p.m(G)p.r(U)p.r(A)p.r(U)p.r(U)p.r(C)p.r(C)p.r(G)p.r(C)p.r(G)p.r(U)p.r(A)p.r(C)p.r(G)p.r(T)p.r(T)}$$$RNA1{StrandType:ss}|RNA2{StrandType:as}$
target mRNA knockdown: 10.3%

RNA1{[lna](G)p.r(G)p.r(C)p.r(C)p.r(U)p.r(U)p.r(U)p.r(C)p.r(A)p.r(C)p.r(U)p.r(A)p.r(C)p.r(U)p.r(C)p.r(C)p.r(U)p.r(A)p.r(C)p.r(G)p.r(A)}|RNA2{r(G)p.r(U)p.r(A)p.r(G)p.r(G)p.r(A)p.r(G)p.r(U)p.r(A)p.r(G)p.r(U)p.r(G)p.r(A)p.r(A)p.r(A)p.r(G)p.r(G)p.r(C)p.r(C)p.r(A)p.r(G)}$$$RNA1{StrandType:ss}|RNA2{StrandType:as}$
target mRNA knockdown: 86%

RNA1{r(G)p.r(A)p.r(C)p.r(G)p.[hna](U)p.r(A)p.r(A)p.[hna](A)p.r(C)p.r(G)p.[hna](G)p.r(C)p.r(C)p.[hna](A)p.r(C)p.r(A)p.r(A)p.r(G)p.[hna](U)p.r(U)p.d(T)}|RNA2{r(A)p.r(C)p.r(U)p.r(U)p.r(G)p.r(U)p.r(G)p.r(G)p.r(C)p.r(C)p.r(G)p.r(U)p.r(U)p.r(U)p.r(A)p.r(C)p.r(G)p.r(U)p.[lna](C)p.[lna](G)p.r(C)}$$$RNA1{StrandType:ss}|RNA2{StrandType:as}$
target mRNA knockdown: 83.9%

RNA1{r(A)p.r(U)p.r(C)p.r(A)p.r(G)p.r(A)p.r(G)p.r(G)p.r(G)p.r(A)p.r(G)p.r(G)p.r(U)p.r(C)p.r(U)p.m(U)p.r(A)p.r(G)p.r(A)p.r(T)p.r(T)}|RNA2{r(U)p.r(C)p.m(U)p.r(A)p.r(A)p.r(G)p.r(A)p.r(C)p.r(C)p.r(U)p.r(C)p.r(C)p.r(C)p.r(U)p.r(C)p.r(U)p.r(G)p.r(A)p.r(U)p.r(T)p.r(T)}$$$RNA1{StrandType:ss}|RNA2{StrandType:as}$
target mRNA knockdown: 69%

RNA1{[fl2r](U)p.r(C)p.[fl2r](C)p.r(U)p.[fl2r](C)p.r(G)p.[fl2r](U)p.r(C)p.[fl2r](G)p.r(U)p.[fl2r](C)p.r(U)p.[fl2r](G)p.r(U)p.[fl2r](U)p.r(C)p.[fl2r](U)p.r(A)p.[fl2r](A)p.r(T)p.r(T)}|RNA2{r(U)p.r(U)p.r(A)p.r(G)p.r(A)p.r(A)p.[fl2r](C)p.r(A)p.r(G)p.r(A)p.[fl2r](C)p.r(G)p.r(A)p.[fl2r](C)p.r(G)p.r(A)p.r(G)p.r(G)p.r(A)p.r(T)p.r(T)}$$$RNA1{StrandType:ss}|RNA2{StrandType:as}$
target mRNA knockdown: 49%

RNA1{r(A)p.r(G)p.r(U)p.[fl2r](U)p.r(A)p.r(A)p.r(C)p.r(C)p.r(C)p.r(G)p.r(G)p.r(G)p.r(A)p.r(C)p.r(U)p.[fl2r](U)p.r(G)p.r(G)p.r(A)p.r(T)p.r(T)}|RNA2{r(U)p.r(C)p.[fl2r](C)p.r(A)p.r(A)p.r(G)p.r(U)p.r(C)p.r(C)p.r(C)p.r(G)p.r(G)p.r(G)p.r(U)p.[fl2r](U)p.r(A)p.r(A)p.r(C)p.r(U)p.r(T)p.r(T)}$$$RNA1{StrandType:ss}|RNA2{StrandType:as}$
target mRNA knockdown: 85% and 86%

RNA1{r(U)p.m(U)p.r(A)p.r(C)p.r(A)p.r(A)p.r(A)p.r(G)p.r(G)p.r(A)p.r(U)p.r(C)p.r(U)p.r(C)p.r(C)p.r(U)p.r(C)p.r(C)p.r(C)p.r(T)p.r(T)}|RNA2{r(G)p.r(G)p.r(G)p.r(A)p.r(G)p.r(G)p.r(A)p.r(G)p.r(A)p.r(U)p.r(C)p.r(C)p.r(U)p.r(U)p.r(U)p.r(G)p.m(U)p.r(A)p.r(A)p.r(T)p.r(T)}$$$RNA1{StrandType:ss}|RNA2{StrandType:as}$
target mRNA knockdown: 69%

RNA1{r(C)p.r(U)p.r(A)p.r(A)p.r(G)p.r(G)p.r(A)p.r(C)p.r(C)p.r(U)p.r(A)p.r(A)p.r(C)p.r(A)p.r(A)p.[una](A)p.r(G)p.[una](U)p.[una](U)p.r(U)p.r(U)}|RNA2{r(A)p.r(A)p.r(C)p.r(U)p.r(U)p.r(U)p.r(G)p.r(U)p.r(U)p.r(A)p.r(G)p.r(G)p.r(U)p.r(C)p.r(C)p.r(U)p.r(U)p.r(A)p.r(G)p.r(U)p.r(U)}$$$RNA1{StrandType:ss}|RNA2{StrandType:as}$
target mRNA knockdown: 70%

RNA1{r(A)p.r(A)p.r(G)p.r(G)p.r(A)p.r(C)p.r(C)p.m(U)p.r(A)p.r(G)p.r(A)p.r(G)p.r(G)p.r(A)p.r(G)p.r(U)p.r(C)p.r(A)p.r(C)p.r(T)p.r(T)}|RNA2{r(G)p.m(U)p.r(G)p.r(A)p.r(C)p.r(U)p.r(C)p.r(C)p.r(U)p.r(C)p.r(U)p.r(A)p.r(G)p.r(G)p.r(U)p.r(C)p.r(C)p.r(U)p.r(U)p.r(T)p.r(T)}$$$RNA1{StrandType:ss}|RNA2{StrandType:as}$
target mRNA knockdown: 80%

RNA1{r(G)p.r(A)p.r(A)p.r(A)p.r(C)p.m(U)p.m(G)p.r(G)p.m(U)p.r(A)p.r(C)p.r(U)p.r(U)p.r(U)p.r(C)p.r(C)p.r(C)p.r(C)p.r(C)p.r(T)p.r(T)}|RNA2{r(G)p.r(G)p.r(G)p.r(G)p.r(G)p.r(A)p.r(A)p.r(A)p.r(G)p.m(U)p.r(A)p.r(C)p.r(C)p.r(A)p.r(G)p.r(U)p.r(U)p.r(U)p.r(C)p.r(T)p.r(T)}$$$RNA1{StrandType:ss}|RNA2{StrandType:as}$
target mRNA knockdown: 88%

RNA1{r(G)p.r(G)p.m(U)p.r(A)p.r(G)p.r(G)p.r(G)p.r(U)p.m(U)p.r(G)p.r(A)p.r(A)p.r(G)p.r(A)p.r(G)p.r(A)p.r(C)p.r(U)p.r(U)p.r(T)p.r(T)}|RNA2{r(A)p.r(A)p.r(G)p.r(U)p.r(C)p.r(U)p.r(C)p.r(U)p.r(U)p.m(C)p.r(A)p.r(A)p.r(C)p.r(C)p.r(C)p.m(U)p.r(A)p.r(C)p.r(C)p.r(T)p.r(T)}$$$RNA1{StrandType:ss}|RNA2{StrandType:as}$
target mRNA knockdown: 94%

RNA1{m(A)p.r(U)p.m(C)p.r(A)p.m(C)p.r(A)p.m(A)p.r(A)p.m(C)p.r(C)p.m(C)p.r(C)p.m(U)p.r(A)p.m(G)p.r(A)p.m(G)p.r(G)p.m(G)p.r(T)p.r(T)}|RNA2{r(C)p.r(C)p.r(C)p.r(U)p.r(C)p.r(U)p.r(A)p.r(G)p.r(G)p.r(G)p.r(G)p.r(U)p.r(U)p.r(U)p.r(G)p.r(U)p.r(G)p.r(A)p.r(U)p.r(T)p.r(T)}$$$RNA1{StrandType:ss}|RNA2{StrandType:as}$
target mRNA knockdown: 9%

RNA1{r(A)p.r(G)p.r(A)p.r(G)p.r(A)p.r(G)p.r(G)p.[fl2r](U)p.r(G)p.r(G)p.r(A)p.r(G)p.r(G)p.[fl2r](U)p.r(A)p.r(U)p.r(C)p.[fl2r](U)p.r(C)p.r(T)p.r(T)}|RNA2{r(G)p.r(A)p.r(G)p.r(A)p.[fl2r](U)p.r(A)p.r(C)p.r(C)p.r(U)p.r(C)p.[fl2r](C)p.[fl2r](A)p.r(C)p.r(C)p.r(U)p.r(C)p.r(U)p.r(C)p.r(U)p.r(T)p.r(T)}$$$RNA1{StrandType:ss}|RNA2{StrandType:as}$
target mRNA knockdown: 85%
